Drawing on US20250059162A1, “MULTI-PROTEIN DEGRADATION AGENT HAVING IMIDE SKELETON” (SUZHOU KINTOR PHARMACEUTICALS, INC., priority 2021, published 2025), this text covers remaining activity, IC50 and remaining GSPT1 protein for 15 molecules.

Common to all, as to type: cell-based
One experiment addresses T1, c-Myc protein (Homo sapiens, UniProt P01106).
T1 construct: degradation of myc and GSPT1 proteins in HL60 cells; endogenous in cells; host or cells: HL60
Briefly: c-Myc protein degradation in HL60 cells (Western blot). The settings on record: HL-60, compound at 10 nM, 24 h, gray value relative to Ctrl (DMSO), read-out: Remaining amount of c-Myc protein (@10 nM/Ctrl). As to the method: (§1) HL60 cells in the exponential growth phase were digested and plated into a 6-well plate at 1×10^6 cells per well. The cell culture medium was RPMI-1640 (meilunbio, MA0215). After a day of adherent growth of the cells, the compound of the present invention was added as a test drug for culture, and proteins were extracted 24 h later (Ctrl meant adding only DMSO at the same volume).
(§2) In the 6-well plate, the culture medium RPMI-1640 (meilunbio, MA0215) was removed, and the cells were washed once with PBS, digested with trypsin, and centrifuged and collected separately into 1.5 mL centrifuge tubes. 100 μL of RIPA lysis buffer (containing 100 μM PMSF) was added to each tube, mixed thoroughly, allowed to stand on ice for 30 min and then centrifuged at 12000 rpm at 4° C. using a centrifuge for 20 min. The supernatant was used for Western blotting experiments. The sample can be stored at −80° C.
(§3) By using the BCA protein concentration determination kit (from Thermo Fisher, Cat. No. 23225), the BSA standard determination solution and the samples to be tested (the samples to be tested can be diluted and then tested) were prepared according to the table A below. Samples were added to the 96-well plate. Each well was supplemented with PBS to 20 μL, and then 200 μL of BCA working solution (prepared according to the kit) was added respectively and mixed evenly. The plate was placed at 60° C. for 10 min, and then the absorbance at 562 nm was detected. After the reading was recorded, a standard curve was plotted using concentration gradients of the standards, and the absorbance of the samples was substituted to calculate the protein concentration of the samples.
(§4) • 2.1 Protein denaturation: RIPA protein buffer (purchased from Solarbio, Cat. No. R0010) and 5× Loading Buffer (SDS, glycerin, bromophenol blue, TRIS) (purchased from Solarbio, Cat. No. P1040) were added, and the protein samples were denatured at 100° C. for 5 min. • 2.2 Sample loading and electrophoresis: 10% precast gel and the corresponding electrophoresis buffer were used. The same mass of protein sample and protein ladder (purchased from thermo, Cat. No. 26617) were loaded into each well, and electrophoresis at 200 V was performed for 30 min. • 2.3 […]: The gel was excised to remove the excess part. Transferring to PVDF membrane was performed by the wet transfer method (before use, it was necessary to activate the PVDF membrane with methanol for 1 min) at 300 mA for 2 h, during which a lot of heat was generated, and thus cooling with an ice box was required. • 2.4 Blocking: After the transferring, the PVDF membrane was placed in 5% skim milk and blocked with shaking at room temperature for 1 h. • 2.5 Incubating with primary antibody: The PVDF membrane was cut according to the molecular weight indicated on the marker and placed in c-myc (purchased from abcam, Cat. No. ab32072), or GSPT1 (purchased from abcam, Cat. No. ab234433), or CK1α (purchased from abcam, Cat. No. ab206652), or IKZF2 (purchased from proteintech, Cat. No. 13554-1-AP), and GAPDH (purchased from CST, Cat. No. #97166) primary antibodies. The antibodies were diluted with TBST buffer (a solution prepared from TRIS, KCL and NaCl and adjusted to pH 7.4 with hydrochloric acid, and Tween 20 was added) at a ratio of 1:1000, and blocked overnight on a shaker at 4° C. • 2.6 Incubating with secondary antibody: The PVDF membrane incubated with the primary antibody was washed with TBST for 3 times, each time for 10 min. After washing, the membrane was placed in the secondary antibody of the corresponding species, and incubated at room temperature in a shaker for 2 h. • 2.7 Washing membrane and exposure: After incubated with the secondary antibodies, the membrane was washed 3 times with TBST on a shaker, 10 minutes each time. […]
On the technique in general: A western blot detects proteins with antibodies after separation by electrophoresis.

Another experiment concerns HL60 cells. Put plainly: Anti-proliferation on HL60 cells (CellTiter-Glo, 3 days). Conditions: Homo sapiens, HL-60, 72 h, 3 days incubation, CTG luminescence, IC50 by XLfit, read-out: HL60 cells Proliferation inhibitory activity. In short, it runs like this:
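Log-phase cells were plated at 20000 cells/well and treated with compound dilutions in RPMI-1640 for 3 days, with 0.1% DMSO controls. Proliferation was read by CellTiter-Glo luminescence. IC50 was fitted from the inhibition rates.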
For orientation: Cellular ATP, detected with luciferase, serves as a proxy for viable cell number.

For the next experiment, the target named is T2, GSPT1 protein (Homo sapiens, UniProt P15170).
T2 construct: degradation of myc and GSPT1 proteins in HL60 cells; endogenous in cells; host or cells: HL60
T2 sequence (P15170 whole entry): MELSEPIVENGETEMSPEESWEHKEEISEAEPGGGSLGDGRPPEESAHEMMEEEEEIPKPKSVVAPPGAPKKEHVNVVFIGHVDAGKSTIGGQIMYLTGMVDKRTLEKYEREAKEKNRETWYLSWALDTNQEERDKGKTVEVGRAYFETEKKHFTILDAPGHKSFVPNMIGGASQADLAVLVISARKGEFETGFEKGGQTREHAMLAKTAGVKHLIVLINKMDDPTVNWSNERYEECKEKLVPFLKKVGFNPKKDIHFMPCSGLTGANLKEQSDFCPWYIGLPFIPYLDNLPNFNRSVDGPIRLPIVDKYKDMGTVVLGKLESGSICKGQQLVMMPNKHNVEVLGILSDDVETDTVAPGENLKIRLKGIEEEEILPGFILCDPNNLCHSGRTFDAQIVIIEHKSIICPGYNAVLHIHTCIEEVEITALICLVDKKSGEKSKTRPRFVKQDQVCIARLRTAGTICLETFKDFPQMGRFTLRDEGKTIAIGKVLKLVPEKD
Briefly: GSPT1 protein degradation in HL60 cells (Western blot). The settings on record: HL-60, compound at 10 nM, 24 h, gray value relative to Ctrl (DMSO), read-out: Remaining amount of GSPT1 protein (@10 nM/Ctrl). As to the method: as §1, §2, §3, §4

pIC50: −log10 of the molar value.

T1 sequence (P01106 whole entry): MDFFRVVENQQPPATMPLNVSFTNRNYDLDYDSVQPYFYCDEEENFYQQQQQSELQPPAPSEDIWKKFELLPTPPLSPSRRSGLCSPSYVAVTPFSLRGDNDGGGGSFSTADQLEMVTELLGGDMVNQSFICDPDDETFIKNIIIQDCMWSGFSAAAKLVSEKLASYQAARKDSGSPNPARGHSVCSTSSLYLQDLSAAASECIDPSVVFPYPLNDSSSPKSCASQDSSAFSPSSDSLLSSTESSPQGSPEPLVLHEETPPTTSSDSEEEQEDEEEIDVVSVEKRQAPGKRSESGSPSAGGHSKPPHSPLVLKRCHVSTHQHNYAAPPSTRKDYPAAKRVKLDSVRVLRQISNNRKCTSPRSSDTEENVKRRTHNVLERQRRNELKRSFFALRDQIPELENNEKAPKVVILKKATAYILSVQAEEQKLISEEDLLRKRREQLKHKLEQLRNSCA

For the molecule `O=C1CCC(N2Cc3cc(CNC(=O)C4CCN(c5ncc(-c6cccc(Cl)c6)cn5)CC4)ccc3C2=O)C(=O)N1` (stereo not drawn) [Compound A65], the remaining activity at 0.01 µM on c-Myc protein was determined as 0%. The pIC50 with HL60 cells was over 9.70. Besides, at GSPT1 protein, the remaining GSPT1 protein at 0.01 µM is 14%.

Turning to `O=C1CCC(N2Cc3cc(CNCC4CCN(c5ncc(-c6cccc(F)c6)cn5)CC4)ccc3C2=O)C(=O)N1` (stereo not drawn) [Compound A67], at c-Myc protein, the remaining activity at 0.01 µM was 19%. Besides, the pIC50 in the experiment on HL60 cells was 8.70. For the same molecule, the remaining GSPT1 protein at 0.01 µM at GSPT1 protein was found to be 25%.

For the molecule `Cc1cccc(-c2cnc(N3CCC(CNCc4ccc5c(c4)CN(C4CCC(=O)NC4=O)C5=O)CC3)nc2)c1` (stereo not drawn) [Compound A68], the remaining activity at 0.01 µM at c-Myc protein was 0%. The pIC50 in the experiment with HL60 cells is over 9.70. Also, the remaining GSPT1 protein at 0.01 µM on GSPT1 protein was 0%.

Take `N#Cc1cccc(-c2cnc(N3CCC(CNCc4ccc5c(c4)CN(C4CCC(=O)NC4=O)C5=O)CC3)nc2)c1` (stereo not drawn) [Compound A69]: the remaining activity at 0.01 µM on c-Myc protein amounted to 30%. The pIC50 in the experiment with HL60 cells was 7.66. At GSPT1 protein, the remaining GSPT1 protein at 0.01 µM turned out to be 53%.

In the case of `O=C1CCC(N2Cc3cc(CNCC4CCN(c5ccc(-c6cccc(Cl)c6)cn5)CC4)ccc3C2=O)C(=O)N1` (stereo not drawn) [Compound A70], at c-Myc protein, the remaining activity at 0.01 µM was found to be 216%. Also, the pIC50 with HL60 cells is over 9.70. Moreover, the remaining GSPT1 protein at 0.01 µM on GSPT1 protein amounted to 23%.

On to `O=C1CCC(N2Cc3cc(CNCC4CCN(c5ccc(-c6cccc(Cl)c6)nc5)CC4)ccc3C2=O)C(=O)N1` (stereo not drawn) [Compound A71], for which the remaining activity at 0.01 µM at c-Myc protein came to 26%. For the same molecule, the pIC50 with HL60 cells was over 9.70. The remaining GSPT1 protein at 0.01 µM on GSPT1 protein was found to be 0%.

Consider `O=C1CCC(N2Cc3cc(CNCC4CCN(c5ncc(-c6ccccc6Cl)cc5F)CC4)ccc3C2=O)C(=O)N1` (stereo not drawn) [Compound A72], for which the remaining activity at 0.01 µM at c-Myc protein came to 16%. In the experiment with HL60 cells, the pIC50 is 7.20. Moreover, at GSPT1 protein, the remaining GSPT1 protein at 0.01 µM turned out to be 0%.

Consider `O=C1CCC(N2Cc3cc(CNCC4CCN(c5ncc(-c6cccc(Cl)c6)cc5F)CC4)ccc3C2=O)C(=O)N1` (stereo not drawn) [Compound A73], for which the remaining activity at 0.01 µM on c-Myc protein is 0%. In the experiment on HL60 cells, the pIC50 was over 9.70. Moreover, the remaining GSPT1 protein at 0.01 µM on GSPT1 protein was 0%.

As to `O=C1CCC(N2Cc3cc(CNCC4CCN(c5ncc(-c6ccc(Cl)cc6)cc5F)CC4)ccc3C2=O)C(=O)N1` (stereo not drawn) [Compound A74], the remaining activity at 0.01 µM on c-Myc protein is 104%. Moreover, in the experiment on HL60 cells, the pIC50 was 8.96. Further, on GSPT1 protein, the remaining GSPT1 protein at 0.01 µM was determined as 10%.

Regarding `O=C1CCC(N2Cc3cc(CNCC4CCN(c5ncc(-c6cccc(Cl)c6)cc5Cl)CC4)ccc3C2=O)C(=O)N1` (stereo not drawn) [Compound A75], the remaining activity at 0.01 µM on c-Myc protein was determined as 0%. In the experiment on HL60 cells, the pIC50 is over 9.70. Also, on GSPT1 protein, the remaining GSPT1 protein at 0.01 µM came to 0%.

Regarding `COc1cc(-c2cccc(Cl)c2)cnc1N1CCC(CNCc2ccc3c(c2)CN(C2CCC(=O)NC2=O)C3=O)CC1` (stereo not drawn) [Compound A77], the remaining activity at 0.01 µM on c-Myc protein came to 50%. The pIC50 in the experiment with HL60 cells was over 9.70. Besides, on GSPT1 protein, the remaining GSPT1 protein at 0.01 µM came out at 2%.

On to `O=C1CC[C@H](N2Cc3cc(CNCC4CCN(c5ncc(-c6cccc(Cl)c6)cc5C(F)(F)F)CC4)ccc3C2=O)C(=O)N1` [Compound A81], for which the remaining activity at 0.01 µM at c-Myc protein was 0%. Also, in the experiment with HL60 cells, the pIC50 was over 9.70. Besides, the remaining GSPT1 protein at 0.01 µM at GSPT1 protein worked out at 0%.

In the case of `O=C1CCC(N2Cc3cc(CNCC4(F)CCN(c5ncc(-c6cccc(Cl)c6)cc5C(F)(F)F)CC4)ccc3C2=O)C(=O)N1` (stereo not drawn) [Compound A83], the remaining activity at 0.01 µM at c-Myc protein came out at 4%. In addition, the pIC50 with HL60 cells was 8.92. On GSPT1 protein, the remaining GSPT1 protein at 0.01 µM was 0%.

In the case of `Cc1cccc(-c2cnc(N3CCC(F)(CNCc4ccc5c(c4)CN(C4CCC(=O)NC4=O)C5=O)CC3)c(C(F)(F)F)c2)c1` (stereo not drawn) [Compound A85], the remaining activity at 0.01 µM at c-Myc protein is 8%. The pIC50 in the experiment on HL60 cells is 9.00. Besides, the remaining GSPT1 protein at 0.01 µM on GSPT1 protein was determined as 3%.

With `O=C1CCC(N2Cc3cc(CNCC4CCN(c5ncc(-c6cccc(Cl)c6)cc5F)CC4F)ccc3C2=O)C(=O)N1` (stereo not drawn) [Compound A87], at c-Myc protein, the remaining activity at 0.01 µM worked out at 11%. For the same molecule, in the experiment with HL60 cells, the pIC50 was 9.22. The remaining GSPT1 protein at 0.01 µM on GSPT1 protein was 0%.
